Laboratory results as given in US8293208B2, “Fluorinated fructose derivatives for PET imaging” (The Governors of the University of Alberta, priority 2009, dated 2012).

Experiments:
MCF-7 cells [1] = experiment: Inhibition of [14C]-D-glucose transport (hexose flux) in MCF-7 cells; assay type: cell-based, human; conditions: for Ki: [14C]-D-glucose
Description: (§1) Both MCF-7 and MDA-MB-231 cells (Gifts from Dr. David Murray, Cross Cancer Institute, Edmonton, Canada) were grown in a 37° C., 5% CO2 incubator, in Gibco® DMEM-F12 supplemented with 15 mM HEPES, L-glutamine, 10% fetal bovine serum and 1% penicillin/streptomycin with media renewal every 2 to 3 days. For cell flux studies, cells were grown to confluence in 12-well plates with media renewal every two days. Two hours before performing the flux experiment, the media was removed, and the cells washed twice with phosphate buffered saline solution (PBS). Glucose-free Krebs-Ringer solution was added to the wells (120 mM NaCl, 25 mM NaHCO3, 4 mM KCl, 1.2 mM KH2PO4, 2.5 mM MgSO4, 70 uM CaCl2, pH 7.4) to deprive the cells of nutrients and to set up a zero-trans experiment. After two hours, cells were removed from the incubator, and the respective experiments were performed. Radioactive “Hot” flux solutions were made up using the Krebs-Ringer solution previously mentioned and radiolabelled [^14C]-D-glucose (Amersham), [^14C]-D-fructose (Moravek Biochemicals), or [^14C]6FDF (proprietary) at a specific activity of approximately 1 μCi/ml. For determining background levels of radioactivity, a sodium reduced Krebs solution was made (70 mM NaCl, 25 mM NaHCO3, 4 mM KCl, 1.2 mM KH2PO4, 2.5 mM MgSO4, 70 μM CaCl2, pH 7.4) with the addition of either 100 mM D-glucose or 100 mM D-fructose to outcompete the binding sites of the specific GLUT transporters under examination. After applying the test flux solution, incubations lasted for 25 minutes, where the cells were then rinsed twice with ice-cold Krebs-Ringer to stop the transport, and then lysed using 500 μl 5% trichloracetic acid and left to sit on a shaker bed overnight. […] The vials were then placed in a Beckman™ LS 6500 multi-purpose liquid scintillation counter to be quantified. […]
(§2) All uptake values were corrected for their respective adhering extracellular substrate, and Ki values were determined using non-linear regression in GraphPad Prism™ 5 (GraphPad Software, Inc., La Jolla, Calif.). […]

Storage stability = assay type: physicochemical; conditions: prolonged storage
MCF-7 cells [2] = experiment: Inhibition of [14C]-D-fructose transport (hexose flux) in MCF-7 cells; assay type: cell-based, human
Description: (§3) Both MCF-7 and MDA-MB-231 cells (Gifts from Dr. David Murray, Cross Cancer Institute, Edmonton, Canada) were grown in a 37° C., 5% CO2 incubator, in Gibco® DMEM-F12 supplemented with 15 mM HEPES, L-glutamine, 10% fetal bovine serum and 1% penicillin/streptomycin with media renewal every 2 to 3 days. For cell flux studies, cells were grown to confluence in 12-well plates with media renewal every two days. Two hours before performing the flux experiment, the media was removed, and the cells washed twice with phosphate buffered saline solution (PBS). Glucose-free Krebs-Ringer solution was added to the wells (120 mM NaCl, 25 mM NaHCO3, 4 mM KCl, 1.2 mM KH2PO4, 2.5 mM MgSO4, 70 uM CaCl2, pH 7.4) to deprive the cells of nutrients and to set up a zero-trans experiment. After two hours, cells were removed from the incubator, and the respective experiments were performed. Radioactive “Hot” flux solutions were made up using the Krebs-Ringer solution previously mentioned and radiolabelled [^14C]-D-glucose (Amersham), [^14C]-D-fructose (Moravek Biochemicals), or [^14C]6FDF (proprietary) at a specific activity of approximately 1 μCi/ml. For determining background levels of radioactivity, a sodium reduced Krebs solution was made (70 mM NaCl, 25 mM NaHCO3, 4 mM KCl, 1.2 mM KH2PO4, 2.5 mM MgSO4, 70 μM CaCl2, pH 7.4) with the addition of either 100 mM D-glucose or 100 mM D-fructose to outcompete the binding sites of the specific GLUT transporters under examination. […] Three 150 μl samples from each well were placed into scintillation counter vials, and 4 ml of ScintiSafe™ liquid scintillation fluid (Fisher) was added. The vials were then placed in a Beckman™ LS 6500 multi-purpose liquid scintillation counter to be quantified. All counts were then normalized to standards and corrected for background accumulation of isotope.
(§4) All uptake values were corrected for their respective adhering extracellular substrate, and Ki values were determined using non-linear regression in GraphPad Prism™ 5 (GraphPad Software, Inc., La Jolla, Calif.). ANOVA analysis was also performed in GraphPad Prism™ 5.

MDA-MB-231 cells [3] = experiment: Inhibition of [14C]-D-fructose transport (hexose flux) in MDA-MB-231 cells; assay type: cell-based, human
Description: as §3, §4

MDA-MB-231 cells [4] = experiment: Inhibition of [14C]-D-glucose transport (hexose flux) in MDA-MB-231 cells; assay type: cell-based, human; conditions: for Ki: [14C]-D-glucose
Description: as §1, §2

MCF-7 cells [5] = experiment: [14C]-6-deoxy-6-fluoro-D-fructose uptake in MCF-7 cells; assay type: cell-based, human; conditions: for uptake time course: 90 minute incubation, MCF-7, corrected for non-mediated hexose uptake
Description: as §3, §4

MDA-MB-231 cells [6] = experiment: [14C]-6-deoxy-6-fluoro-D-fructose uptake in MDA-MB-231 cells; assay type: cell-based, human; conditions: 90 minute incubation, MDA-MB-231, corrected for non-mediated hexose uptake
Description: Both MCF-7 and MDA-MB-231 cells (Gifts from Dr. David Murray, Cross Cancer Institute, Edmonton, Canada) were grown in a 37° C., 5% CO2 incubator, in Gibco® DMEM-F12 supplemented with 15 mM HEPES, L-glutamine, 10% fetal bovine serum and 1% penicillin/streptomycin with media renewal every 2 to 3 days. For cell flux studies, cells were grown to confluence in 12-well plates with media renewal every two days. Two hours before performing the flux experiment, the media was removed, and the cells washed twice with phosphate buffered saline solution (PBS). […] For determining background levels of radioactivity, a sodium reduced Krebs solution was made (70 mM NaCl, 25 mM NaHCO3, 4 mM KCl, 1.2 mM KH2PO4, 2.5 mM MgSO4, 70 μM CaCl2, pH 7.4) with the addition of either 100 mM D-glucose or 100 mM D-fructose to outcompete the binding sites of the specific GLUT transporters under examination. […] The vials were then placed in a Beckman™ LS 6500 multi-purpose liquid scintillation counter to be quantified. […]
as §2

[7] = increasing concentrations, MCF-7
[8] = increasing concentrations, MDA-MB-231
[9] = listed as [^14C]-labelled 6-deoxy-6-fluoro-D-fructose

With `OCC1(O)O[C@H](CF)[C@@H](O)[C@@H]1O` (stereo partly drawn) [6-deoxy-6-fluoro-D-fructose] the Ki (MCF-7 cells [1]; 25 minute incubation, MCF-7, n=3) was roughly 916 µM, the Ki (MCF-7 cells [1]; MCF-7 (FIG. 7A)) was roughly 916 µM and the “inhibition of [14C]-D-glucose transport, in words” value (MCF-7 cells [1]; [7]) was “dose dependent inhibition”. For the same compound, the stability during storage (Storage stability) was “not stable during prolonged storage”, the Ki (MCF-7 cells [2]; [14C]-D-fructose, 25 minute incubation, MCF-7, n=3) was 154 ± 54 µM and the “inhibition of [14C]-D-fructose transport, in words” value (MCF-7 cells [2]; [7]) was “dose dependent inhibition”. For the same compound, the Ki (MDA-MB-231 cells [3]; [14C]-D-fructose, 25 minute incubation, MDA-MB-231, n=3) was 330 ± 153 µM, the “inhibition of [14C]-D-fructose transport, in words” value (MDA-MB-231 cells [3]; [8]) was “dose dependent inhibition” and the Ki (MDA-MB-231 cells [4]; 25 minute incubation, MDA-MB-231, n=3) was 6210 ± 2860 µM. The Ki (MDA-MB-231 cells [4]; MDA-MB-231 (FIG. 7B)) was 6210 ± 2860 µM and the “inhibition of [14C]-D-glucose transport, in words” value (MDA-MB-231 cells [4]; [8]) was “dose dependent inhibition”.
For `C=C1[C@@H](C)[C@H]2[C@H](Cc3ccccc3)NC(=O)[C@]23OC(=O)/C=C/[C@H](O)CCC[C@@H](C)C/C=C/[C@H]3[C@@H]1O` [CB, cytochalasin B, reference compound], the “effect on 6-deoxy-6-fluoro-D-fructose transport” value (MCF-7 cells [5]; 100 μM CB, [14C]-6-deoxy-6-fluoro-D-fructose, 60 minutes, MCF-7) was “no significant transport difference”, the “effect on fructose transport” value (MCF-7 cells [2]; 100 μM CB, [14C]-D-fructose, 60 minutes, MCF-7) was “no significant transport difference” and the “share of total fructose flux inhibited (GLUT2-mediated)” value (MCF-7 cells [2]; 100 μM CB, [14C]-D-fructose, 90 minute flux, MCF-7) was “about 12%”. The “share of total fructose flux inhibited (GLUT2-mediated)” value (MDA-MB-231 cells [3]; 100 μM CB, [14C]-D-fructose, 90 minute flux, MDA-MB-231) was “approximately 30%”.
In the case of `O=C(CO)[C@@H](O)[C@H](O)[C@H](O)CF` [[^14C]-6-deoxy-6-fluoro-D-fructose], the uptake time course (MDA-MB-231 cells [6]) is reported as “Near linear uptake”, the uptake time course (MDA-MB-231 cells [6]; [9]) is reported as “Near linear uptake over time” and the uptake time course (MCF-7 cells [5]) is reported as “Near linear uptake”. For the same compound, the uptake time course (MCF-7 cells [5]; [9]) was “Near linear uptake over time” and the “increase in uptake compared to [14C]-D-fructose” value (MCF-7 cells [5]; MCF-7, one hour incubation, 2-way ANOVA p=0.0028) was “almost two-fold increase”.
